{"source": "patent US11135163B2", "about": "“Peptide hydrogel properties and its applications” (Kansas State University Research Foundation, priority 2014, dated 2021)", "key": {"[1]": {"test_system": "HeLa cells", "assay": "HeLa cell viability (CCK-8) in 3D h9e hydrogel", "type": "cell-based", "details": "same amount of camptothecin", "method": "Cell culture and drug efficacy/diffusion tests: HeLa cells were grown in the hydrogel in 3D. Aliquots of HeLa cells solution were added into […] hydrogel with DMEM containing 10% FBS with a final peptide concentration of 0, 0.25, 0.5 and 1 wt %. 100 μl of cell mixture solution (3×10^4 cells per well) was seeded into a 96-well culture plate (Becton Dickinson Labware, Franklin Lakes, N.J.) and placed in an incubator (Nuair, Playmouth, Minn.) in a humidified 5% CO2 atmosphere at 37° C. for about 30 min. After complete hydrogelation, 10 μl of DMEM containing 0, 50 uM, 100 uM, or 200 uM camptothecin was added on top of the hydrogel to obtain camptothecin concentrations of 0 μM, 3.125 μM, 6.25 μM, and 12.5 μM, respectively, upon total diffusion in the hydrogel. Then, 50 ul of DMEM was carefully added to the top of the hydrogel to prevent drying during long-term incubation. All measurements were made at least in triplicate, and the plates were incubated for 3 days. A CCK-8 assay was used to determine cell viability after each treatment. 10 μL of CCK solution was added to each well. After 4 h of incubation, the absorbance at 450 nm was collected on a microplate reader (mQuant, Bio-Tek) and corrected by subtracting the background signal from a wall containing only 160 ul DMEM containing 10% FBS. […]"}, "[2]": {"assay": "Hydrogelation and dynamic rheology of h9e in MEM", "type": "physicochemical", "details": "MEM without serum"}, "[3]": {"assay": "Instantaneous gelation time sweep of peptide sequences 1, 3 and 4", "type": "physicochemical", "details": "triggered with 100 mM CaCl2 solution (FIG. 12, 13)", "method": "Similar to the methods used in U.S. 2013/0018004. Hydrogels were prepared with peptide 1, 3, and 4 alone, or mixture of peptide sequence 1 and 4 at 1:1 ratio. Hydrogels were triggered by calcium ions and BSA alone or co-trigger (calcium ions+BSA)."}, "[4]": {"assay": "Comparison of material properties of 3D cell culture hydrogels", "type": "physicochemical"}, "[5]": {"assay": "Hydrogelation and dynamic rheology of h9e in MEM", "type": "physicochemical", "details": "for stable storage modulus: 37° C.", "method": "Lyophilized peptide was added to 100 mM sodium bicarbonate and completely dissolved by magnetic stirring for 3 hours with a final peptide concentration of 10 mM. For hydrogelation, peptide solution was added into MEM with 10% FBS and the mixture was hand-shaken for about 10 seconds. The peptide hydrogel formed within 15 minutes at room temperature with final peptide concentrations of 1, 2, and 3 mM. The storage and loss moduli (G′ and G″, respectively) of h9e hydrogels were determined on a C-VOR 150 rheometer system (Malvern instruments, Malvern, Worcestershire WR141XZ, United Kingdom) with a 20-mm diameter parallel plate geometry and 500 μm gap size. To mimic cell physiological conditions, all rheological tests were performed at 37° C. unless otherwise specified. The peptide and MEM mixture was placed on the measuring system immediately after mixing for a gel-forming rate test. Single frequency (1 Hz) and steady shear strain (1%) were selected for a 1 hour test. To determine the hydrogel reassembly capability, the peptide and MEM mixture was incubated at room temperature overnight for hydrogelation, then transferred to a lower measuring plate for a 10 minute, single-frequency test (1 Hz, 1% strain) for stabilization. The hydrogel was broken using 1 Hz frequency and 500% shear strain for 1 minute. Resetting the instrument parameters took 1 minute, and the hydrogel moduli during the reassembly period were measured under 1 Hz frequency and 1% shear strain for 1 hour. The amplitude sweep test (strain from 1 to 500%, 1 Hz frequency) was conducted multiple times to determine hydrogel reassembly capability after each time it was destroyed. Four testing cycles were applied in this measurement and the hydrogel recovery time between every two cycles was 1, 5, and 10 minutes. Furthermore, to test the response to different environmental temperatures, the peptide hydrogel was measured under a temperature profile test with steady oscillatory frequency (1 Hz) and strain (1%). The temperature was adjusted from 4° C. to 50° C. for two testing cycles. For each cycle, the instrument's heating or cooling processes took 5 minutes, then another 5 minutes to arrive at the setting temperature (4° C. or 50° C.). To determine the G′ and G″ of hydrogel during cell isolation, 3 mM peptide hydrogel was diluted 15 times with MEM. After thorough mixing, the diluted solution was tested under 1 Hz frequency and 1% shear strain at 4° C. for 1 hour."}, "[6]": {"assay": "Rheology of h9e/HSA hydrogel formation", "type": "physicochemical", "method": "For albumin triggered hydrogel formation, 10 mM (1.74 wt %) peptide was first dissolved in 100 mM NaHCO3 solution. BSA and HSA were dissolved in water with 5 wt % concentration. The peptide solution and albumin solution were then mixed at different ratios for final mixtures of 1, 2, 3 mM h9e peptide with albumin from 0.1 to 5 wt %.\nThe storage (G′) and loss (G″) moduli of h9e hydrogels with different peptide/albumin ratios were measured on a rheometer system C-VOR 150 (Malvern instruments, Malvern, Worcestershire WR141XZ, United Kingdom) with a 20 mm diameter parallel plate test system. All rheological tests were carried out at 37° C. To determine the hydrogel forming rate, the peptide and albumin mixture was placed on the measuring system immediately after preparation and tested by a single frequency (1 Hz) method with steady shear strain (1%) for 1 hour"}}}
{"substance": "H-FLIVIGSIIGPGGDGPGGD-NH2 [h9e, FLIVIGSIIGPGGDGPGGD]", "values": [{"measurement": "HeLa cell viability across h9e hydrogel concentrations", "setting": "[1]", "result": "cell viability was comparable"}, {"measurement": "solution to hydrogel transition", "setting": "[2]", "result": "did not stimulate this solution to hydrogel transitions effectively"}, {"measurement": "final gel strength after 30 minute gelation time sweep", "setting": "[3]", "result": 240, "unit": "Pa"}, {"measurement": "Porosity", "setting": "[4]", "result": "50-200 nm"}, {"measurement": "stable storage modulus", "setting": "[5]; 1 mM h9e in MEM", "result": "around 100 Pa"}, {"measurement": "gel strength recovered", "setting": "[5]; 1 mM hydrogel, waiting time 1 min", "result": "about 73%"}, {"measurement": "gel strength recovered", "setting": "[5]; 1 mM, after three shear-thinning cycles and 10 min waiting", "result": 83, "unit": "%"}, {"measurement": "stable storage modulus", "setting": "[5]; 2 mM h9e in MEM", "result": "~400", "unit": "Pa"}, {"measurement": "gel strength recovered", "setting": "[5]; 2 mM hydrogel, waiting time 1 min", "result": "~76", "unit": "%"}, {"measurement": "gel strength recovered", "setting": "[5]; 2 mM, after three shear-thinning cycles and 10 min waiting", "result": 84, "unit": "%"}, {"measurement": "stable storage modulus", "setting": "[5]; 3 mM h9e in MEM", "result": "~700", "unit": "Pa"}, {"measurement": "gel strength recovered", "setting": "[5]; 3 mM hydrogel, waiting time 1 min", "result": "~88", "unit": "%"}, {"measurement": "gel strength recovered", "setting": "[5]; 3 mM, after three shear-thinning cycles and 10 min waiting", "result": 100, "unit": "%"}, {"measurement": "time to reach self-supporting strength (close or above 100 Pa)", "setting": "[5]; 1, 2 and 3 mM h9e in MEM", "result": "≤ 15", "unit": "min"}, {"measurement": "G′ after shear-thinning", "setting": "[5]; 1-3 mM hydrogels, 500% strain for 1 minute", "result": "lower than 0.2 Pa"}, {"measurement": "time to self-supporting hydrogel matrix", "setting": "[5]; h9e solution added into MEM with 10% serum", "result": "≤ 1", "unit": "min"}, {"measurement": "G′ at 50° C. relative to 4° C.", "setting": "[5]; temperature profile test, 1-3 mM hydrogels", "result": "2-3 times"}, {"measurement": "hydrogel formation", "setting": "[6]; 3 mM h9e peptide mixed with 5 wt % HSA", "result": "hydrogel was formed"}, {"measurement": "hydrogel formation", "setting": "[6]; peptide concentration 1 mM or HSA concentration 0.5 wt %", "result": "Hydrogel did not form"}]}
